From patent US20220153734A1, “Pyrazolopyridine Compounds For IRE1 Inhibition” (Optikira, LLC, priority 2019, published 2022)

Tests used:
IRE1α = target: T1, IRE1α (Homo sapiens, UniProt O75460); test: Biochemical assay: inhibition of RNase activity of IRE1α; conditions: enzyme 0.325 nM, substrate 100 nM, 20 minutes
T1 construct: purchased Signal Chem E31-11G
Description: Biochemical Assay: Inhibition of RNase Activity of IRE1α
The RNase reactions were performed in 384 well black ProxiPlate-384 Plus plates (PERKIN Elmer) using 50 mM Tris assay buffer with 0.5 mM MgCl2, 10 mM KCl, 0.03% Tween, 2 mM DTT and 1% DMSO. Test compounds were prepared on the day of assay and dispensed using D300 digital dispenser as a 10-point ½ log dilution series in duplicate, normalized to a final DMSO concentration of […]. Test compounds were pre-incubated for 30 min at room temperature with IRE1α kinase (E31-11G from Signal Chem) in 2.5 μL of assay buffer. Then 2.5 μl of assay buffer containing substrate (5′ Alexa Fluor 647-rCrArU rGrUrC rCrGrC rArGrC rGrCrArUrG-Iowa Black RQ quencher 3′) added, giving a final concentration of enzyme of 0.325 nM and of substrate of 100 nM. After 20 minutes incubation at room temperature the reactions were stopped by added 5 μL of 5M urea, incubated at room temperature for 10 minutes and fluorescence measured on a plate reader (EnVision, PerkinElmer). IC50 values calculated by fitting a sigmoidal curve to percent inhibition of control versus compound concentration.

[1] = test system: ARPE-19 cells stably expressing XBP1 (a.a. 1-376); test: Cellular XBP1 splicing assay (NanoLuc luciferase, thapsigargin); type: cell-based; conditions: thapsigargin 150 nM
Description: Cellular XBP1 Splicing Assay
ARPE-19 cells stably expressing XBP1 (a.a. 1-376) with nano-luciferase gene sequence linked so it is in frame when XBP1 is spliced, were cultured in F12 media, 10% FBS, 0.044% sodium bicarbonate, 150 μg/ml hygromycin B and seeded for assays at 5,000 cells in 384 well plates in culture media without hygromycin B and incubated at 37° C./5% CO2. After overnight incubation test compounds were added to the cell plate in a 10-point ½ log dilution series in duplicate (final DMSO concentration 0.117%). After further incubation of 30 minutes thapsigargin was added (final concentration 150 nM) and then another 4 hour incubation. A NanoLuc luciferase assay (Promega) was used according to the manufacturer's instructions to detect the luciferase and luminescence measured on a luminometer (EnVision, PerkinElmer). IC50 values calculated by fitting a sigmoidal curve to percent inhibition of control of compound concentration.

T1 sequence (O75460 468-977 limits assumed): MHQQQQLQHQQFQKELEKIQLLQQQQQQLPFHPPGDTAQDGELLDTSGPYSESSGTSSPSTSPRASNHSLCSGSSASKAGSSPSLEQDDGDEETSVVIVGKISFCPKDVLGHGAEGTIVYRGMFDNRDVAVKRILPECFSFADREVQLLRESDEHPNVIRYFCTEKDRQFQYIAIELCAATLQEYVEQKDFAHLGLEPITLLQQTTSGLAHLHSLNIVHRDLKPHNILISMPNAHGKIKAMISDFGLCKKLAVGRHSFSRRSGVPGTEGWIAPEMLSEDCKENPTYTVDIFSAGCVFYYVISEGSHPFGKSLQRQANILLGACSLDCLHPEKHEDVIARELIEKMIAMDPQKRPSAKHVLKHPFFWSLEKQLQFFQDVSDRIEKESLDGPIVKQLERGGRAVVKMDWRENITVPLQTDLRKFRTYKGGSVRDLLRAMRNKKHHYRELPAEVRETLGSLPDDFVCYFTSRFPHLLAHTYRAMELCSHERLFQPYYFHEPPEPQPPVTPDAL

SMILES | IC50 (IRE1α) | IC50 ([1]; 4 hour) | IC50 ([1]; Homo sapiens, ARPE-19, 4 h)
CC(C)n1nc(-c2cc(F)c(NS(=O)(=O)Cc3ccccc3Cl)cc2F)c2c(N)ncc(C3=CCC(NC4COC4)CC3)c21 (single isomer, unassigned) [Compound B7, N-(4-(4-amino-1-isopropyl-7-(4-(oxetan-3-ylamino)cyclohex-1-en-1-yl)-1H-pyrazolo[4,3-c]pyridin-3-yl)-2,5-difluorophenyl)-1-(2-chlorophenyl)methanesulfonamide] | 21 nM | 410 nM | –
COCCN[C@H]1CC[C@H](c2cnc(N)c3c(-c4cc(F)c(NS(=O)(=O)c5ccccc5OC)cc4F)nn(C(C)C)c32)CC1 [Compound A10, N-(4-(4-amino-1-isopropyl-7-((1r,4r)-4-((2-methoxyethyl)amino)cyclohexyl)-1H-pyrazolo[4,3-c]pyridin-3-yl)-2,5-difluorophenyl)-2-methoxybenzenesulfonamide] | 240 nM | – | 19 nM
COCCN(CCOC)[C@H]1CC[C@H](c2cnc(N)c3c(-c4cc(F)c(NS(=O)(=O)c5cccc(C(F)(F)F)c5)cc4F)nn(C(C)C)c32)CC1 [Compound A29, N-(4-(4-amino-7-((1r,4r)-4-(bis(2-methoxyethyl)amino)cyclohexyl)-1-isopropyl-1H-pyrazolo[4,3-c]pyridin-3-yl)-2,5-difluorophenyl)-3-(trifluoromethyl)benzenesulfonamide] | 32 nM | – | 500 nM
COCCN(CCOC)[C@H]1CC[C@H](c2cnc(N)c3c(-c4cc(F)c(NS(=O)(=O)c5cc(OC)ccc5F)cc4F)nn(C(C)C)c32)CC1 [Compound A27, N-(4-(4-amino-7-((1r,4r)-4-(bis(2-methoxyethyl)amino)cyclohexyl)-1-isopropyl-1H-pyrazolo[4,3-c]pyridin-3-yl)-2,5-difluorophenyl)-2-fluoro-5-methoxybenzenesulfonamide] | 13 nM | – | 13 nM
COCCN[C@H]1CC[C@H](c2cnc(N)c3c(-c4cc(F)c(NS(=O)(=O)c5ccc(F)c(OC)c5)cc4F)nn(C(C)C)c32)CC1 [Compound A13, N-(4-(4-amino-1-isopropyl-7-((1r,4r)-4-((2-methoxyethyl)amino)cyclohexyl)-1H-pyrazolo[4,3-c]pyridin-3-yl)-2,5-difluorophenyl)-4-fluoro-3-methoxybenzenesulfonamide] | 17 nM | – | 78 nM
CC(C)n1nc(-c2ccc(NS(=O)(=O)c3cc(Cl)ccc3F)c(F)c2)c2c(N)ncc(C3=CCC(NC4COC4)CC3)c21 (racemic) [racemic mixture of B14 & B15, N-(4-(4-amino-1-isopropyl-7-(4-(oxetan-3-ylamino)cyclohex-1-en-1-yl)-1H-pyrazolo[4,3-c]pyridin-3-yl)-2-fluorophenyl)-5-chloro-2-fluorobenzenesulfonamide] | 60 nM | – | 3.3 nM
CC(C)n1nc(-c2cc(F)c(NS(=O)(=O)c3ccccc3Cl)cc2F)c2c(N)ncc(C3=CCC(NC4COC4)CC3)c21 (racemic) [racemic mixture of B10 & B11, N-(4-(4-amino-1-isopropyl-7-(4-(oxetan-3-ylamino)cyclohex-1-en-1-yl)-1H-pyrazolo[4,3-c]pyridin-3-yl)-2,5-difluorophenyl)-2-chlorobenzenesulfonamide] | 60 nM | – | 160 nM
Nc1ncc(C2=CCC(NC3COC3)CC2)c2c1c(-c1ccc(NS(=O)(=O)c3ccccc3Cl)c(F)c1)nn2C1CC1 (single isomer, unassigned) [Compound B18, N-(4-(4-amino-1-cyclopropyl-7-(4-(oxetan-3-ylamino)cyclohex-1-en-1-yl)-1H-pyrazolo[4,3-c]pyridin-3-yl)-2-fluorophenyl)-2-chlorobenzenesulfonamide] | 9.9 nM | 82 nM | –
COc1ccc(Cl)c(S(=O)(=O)Nc2ccc(-c3nn(C(C)C)c4c(C5=CCC(NC6COC6)CC5)cnc(N)c34)cc2F)c1 (single isomer, unassigned) [Compound B9, N-(4-(4-amino-1-isopropyl-7-(4-(oxetan-3-ylamino)cyclohex-1-en-1-yl)-1H-pyrazolo[4,3-c]pyridin-3-yl)-2-fluorophenyl)-2-chloro-5-methoxybenzenesulfonamide] | 70 nM | 150 nM | –
CC(C)n1nc(-c2cc(F)c(NS(=O)(=O)c3ccccc3F)cc2F)c2c(N)ncc(C3=CCC(NC4COC4)CC3)c21 (centres unmarked) [Compound B60, N-(4-(4-amino-1-isopropyl-7-(4-(oxetan-3-ylamino)cyclohex-1-en-1-yl)-1H-pyrazolo[4,3-c]pyridin-3-yl)-2,5-difluorophenyl)-2-fluorobenzenesulfonamide] | 79 nM | – | 240 nM

Now those with a lower IC50 (IRE1α), led by results:

IC50 (IRE1α) | IC50 ([1]; 4 hour) | IC50 ([1]; Homo sapiens, ARPE-19, 4 h) | SMILES
5.2 nM | 90 nM | – | CC(C)n1nc(-c2ccc(NS(=O)(=O)Cc3ccccc3Cl)c(F)c2)c2c(N)ncc(C3=CCC(NC4COC4)CC3)c21 (single isomer, unassigned) [Compound B13, N-(4-(4-amino-1-isopropyl-7-(4-(oxetan-3-ylamino)cyclohex-1-en-1-yl)-1H-pyrazolo[4,3-c]pyridin-3-yl)-2-fluorophenyl)-1-(2-chlorophenyl)methanesulfonamide]
4.7 nM | – | 22 nM | CC(F)CNC1CC=C(c2cnc(N)c3c(-c4ccc(NS(=O)(=O)c5ccccc5Cl)c(F)c4)nn(C(C)C)c23)CC1 (single isomer, unassigned) [Compound B46, N-(4-(4-amino-7-(4-((2-fluoropropyl)amino)cyclohex-1-en-1-yl)-1-isopropyl-1H-pyrazolo[4,3-c]pyridin-3-yl)-2-fluorophenyl)-2-chlorobenzenesulfonamide]
4.1 nM | 64 nM | – | CC(C)n1nc(-c2ccc(NS(=O)(=O)Cc3ccccc3Cl)c(F)c2)c2c(N)ncc(C3=CCC(NC4CC(F)(F)C4)CC3)c21 (single isomer, unassigned) [Compound B49, N-(4-(4-amino-7-(4-((3,3-difluorocyclobutyl)amino)cyclohex-1-en-1-yl)-1-isopropyl-1H-pyrazolo[4,3-c]pyridin-3-yl)-2-fluorophenyl)-1-(2-chlorophenyl)methanesulfonamide]
3.1 nM | 46 nM | – | Nc1ncc(C2=CCC(NC3COC3)CC2)c2c1c(-c1ccc(NS(=O)(=O)Cc3ccccc3Cl)c(F)c1)nn2C1CC1 (single isomer, unassigned) [Compound B23, N-(4-(4-amino-1-cyclopropyl-7-(4-(oxetan-3-ylamino)cyclohex-1-en-1-yl)-1H-pyrazolo[4,3-c]pyridin-3-yl)-2-fluorophenyl)-1-(2-chlorophenyl)methanesulfonamide]
2.9 nM | – | 6.9 nM | COCCN[C@H]1CC[C@H](c2cnc(N)c3c(-c4cc(F)c(NS(=O)(=O)c5cc(OC)ccc5F)cc4F)nn(C(C)C)c32)CC1 [Compound A28]
1.7 nM | 18 nM | – | CC(F)CNC1CC=C(c2cnc(N)c3c(-c4ccc(NS(=O)(=O)Cc5ccccc5Cl)c(F)c4)nn(C(C)C)c23)CC1 (single isomer, unassigned) [Compound B42, N-(4-(4-amino-7-(4-((2-fluoropropyl)amino)cyclohex-1-en-1-yl)-1-isopropyl-1H-pyrazolo[4,3-c]pyridin-3-yl)-2-fluorophenyl)-1-(2-chlorophenyl)methanesulfonamide]
1.3 nM | 13 nM | – | CC(C)n1nc(-c2ccc(NS(=O)(=O)Cc3ccccc3Cl)c(F)c2)c2c(N)ncc(C3=CCC(NC4CC(F)(F)C4)CC3)c21 (single isomer, unassigned) [Compound B48, N-(4-(4-amino-7-(4-((3,3-difluorocyclobutyl)amino)cyclohex-1-en-1-yl)-1-isopropyl-1H-pyrazolo[4,3-c]pyridin-3-yl)-2-fluorophenyl)-1-(2-chlorophenyl)methanesulfonamide]
0.9 nM | 10 nM | – | Nc1ncc(C2=CCC(NC3COC3)CC2)c2c1c(-c1ccc(NS(=O)(=O)Cc3ccccc3Cl)c(F)c1)nn2C1CC1 (single isomer, unassigned) [Compound B22, N-(4-(4-amino-1-cyclopropyl-7-(4-(oxetan-3-ylamino)cyclohex-1-en-1-yl)-1H-pyrazolo[4,3-c]pyridin-3-yl)-2-fluorophenyl)-1-(2-chlorophenyl)methanesulfonamide]
0.3 nM | – | 1.7 nM | CC(C)n1nc(-c2ccc(NS(=O)(=O)Cc3ccccc3Cl)c(F)c2)c2c(N)ncc([C@H]3CC[C@H](NC4COC4)CC3)c21 [Compound A39, N-(4-(4-amino-1-isopropyl-7-((1r,4r)-4-(oxetan-3-ylamino)cyclohexyl)-1H-pyrazolo[4,3-c]pyridin-3-yl)-2-fluorophenyl)-1-(2-chlorophenyl)methanesulfonamide]
